# Data: patent US20230272077A1, “PD-1 SIGNAL INHIBITOR COMBINATION THERAPY” (KYOTO UNIVERSITY, priority 2015, published 2023)
# Entries after “also recorded” stand apart in the source; their conditions may differ.
# What was measured:
# MC38 = test: Mouse therapy model, MC38-bearing mice (tumor volume, survival); type: in vivo; conditions: MC38-bearing mice
# Protocol: MC38 (5×10^5) and MethA (5×10^5) cells were intradermally injected on the right flank. MC38 was inoculated into C57BL/6 mice and MethA was inoculated into BALB/c mice. For monotherapy, mice were intraperitoneally injected with 150 μg of PD-L1 mouse antibody (1-111A) (prepared by the laboratory of the present inventors) 5 days after the tumor inoculation. Therapy with PD-L1 antibody alone was repeated three times every 5 days. For combination therapy, administration of PD-L1 antibody and chemical agents started 7 days after tumor injection. Chemical agents were injected at a regular interval of 2 days and PD-L1 antibody at a regular interval of 5 days (shown in FIG. 3b). Tumors were measured on every alternate day, and tumor volumes were calculated using the formula for typical ellipsoid, π×(length×breadth×height/6).
# The following chemical reagents were used at the indicated concentrations for combination therapy. AMPK activator: A769662, 6 mg/kg (Abcam); mTOR activator: MHY1485, 3 μg/kg (Sigma-Aldrich); uncoupler: carbonylcyanide-p-trifluoromethoxyphenylhydrazone (FCCP), 1.2 mg/kg (Abcam); uncoupler: 2,4-Dinitrophenol (DNP), 1.7 mg/kg (Aldrich); SIRT1 activator: resveratrol, 0.5 mg/kg (Abcam); ROS scavenger: Mn (III) tetrakis (4-benzoic acid) porphyrin (MnTBAP), 1.25 mg/kg (Calbiochem); ROS generator: tert-butyl hydroperoxide solution (Luperox TBH70X), 200 μL/kg (Sigma-Aldrich); ATP synthase inhibitor: oligomycin, 250 μg/kg (Sigma-Aldrich); paraquat 2 mg/kg (Nakalai Tesque); oltipraz 1.9 mg/kg (Sigma); bezafibrate 1 mg/kg (ChemCruz).
# All reagents were freshly prepared just before use. Each reagent was dissolved in the solvent indicated in the instructions. Note that the AMPK activator, mTOR activator, uncouplers and SIRT1 activator were prepared from fresh unused vials in each series of experiments. Dissolved reagents were diluted in PBS, and a 200 l aliquot was injected per mouse.
# (§1) Murine colon adenocarcinoma MC38 cells (5×10^5) were inoculated into C57BL/6 mice. After 7 days, anti-PD-L1 antibody (1-111A, 150 μg) and AMPK inhibitor (Compound C: 200 μg in BBS, 200 μL) were administered intraperitoneally. Anti-PD-L1 antibody was administered 3 times at a regular interval of 6 days; Compound C (C.C) was administered 7 times at a regular interval 2 days.
# MC38 cells (5×10^5) were inoculated into C57BL/6 mice. After 7 days, anti-PD-L1 antibody (1-111A, 150 μg) and PGC-1α/transcription factor complex activator (2-(4-{2-[(4-chlorobenzoyl)amino]ethyl}phenoxy)-2-methylpropanoic acid (bezafibrate): 10 ug in PBS, 200 ul) were administered intraperitoneally. Anti-PD-L1 antibody was administered 3 times at a regular interval of 6 days; bezafibrate was administered 7 times at a regular interval 2 days.
# RENCA = test: RENCA-bearing BALB/c mice (tumor volume); type: in vivo, mouse; conditions: RENCA in BALB/c mice, combined with anti-PD-L1 antibody
# Protocol: as §1, with “renal cell carcinoma RENCA” for “colon adenocarcinoma MC38”, “(2×10^6)” for “(5×10^5)”, “BALB/c” for “C57BL/6”, “l)” for “μL)”, “days. Tumor volumes (mm^3) from day 0 to day 25 of RENCA inoculation are shown.” for “days.”
# [1] = tested on: AMPK and its associated proteins ACC and SIRT1; test: Western blotting of DLN CD8+ T cells, AMPK pathway; type: in vivo, mouse; conditions: CD8+ T cells from mice treated with PD-L1 antibody and reagent
# Protocol: (§2) FIG. 7. […] Phosphorylation of AMPK, ACC, mTOR and S6K and the expression of SIRT1 and 4EBP1 were analyzed by Western blotting. b) MC38-bearing mice were treated with PD-L1 antibody in combination with AMPK activator (A769662) and/or mTOR activator (MHY1485) according to the same schedule as shown in FIG. 3b.
# (§3) CD8^+ T cells were isolated using mouse CD8 Microbeads (Miltenyi Biotec). After washing with PBS twice, 2×10^6 cells were solubilized in a lysis buffer containing 30 mM Tris-HCl (pH.7.4), 150 mM NaCl, 10% glycerol, 0.1% SDS, 1% Triton-X-100, 0.05% Na-Doc, 5 mM EDTA (pH.8.0), protease inhibitor mixture (Roche Molecular Biochemicals) and phosphatase inhibitors (Nacalai Tesque). After measurement of protein concentrations by DC protein assay (Bio-Rad), 4 μg of proteins was mounted on 4 to 20% gradient Mini-PROTEAN TGX Gels (Bio-Rad) and electroblotted onto nitrocellulose membranes, which were then incubated in a blocking buffer of TBS containing 1% BSA. Primary antibody incubations were carried out overnight at 4° C. in blocking buffer. After washing, secondary antibody incubations were carried out at room temperature for 40 min in blocking buffer. Blots were developed with enhanced chemiluminescence (Amersham Pharmacia). […]
# [2] = tested on: mTOR and its associated proteins S6K and 4EBP1; test: Western blotting of DLN CD8+ T cells, mTOR pathway; type: in vivo, mouse; conditions: CD8+ T cells from mice treated with PD-L1 antibody and reagent
# Protocol: as §2, §3
# [3] = used in 1930's; cited from earlier work
# [4] = reagent combined with PD-L1 antibody vs PD-L1 antibody alone
Compound,enhancement of antitumor effect of PD-L1 antibody (tumor volume) (MC38; [4]),"enhancement of antitumor effect of PD-L1 antibody (tumor volume) (MC38; reagent combined with PD-L1 antibody vs PD-L1 antibody alone, listed as compound C)",enhancement of efficacy of anti-PD-L1 antibody therapy (tumor volume) (RENCA),enhancement of efficacy of anti-PD-L1 antibody therapy (tumor volume) (RENCA; listed as compound C),"antitumor activity of triple combination of PD-L1 antibody, DNP and Luperox (MC38; DNP and Luperox both with PD-L1 antibody)","antitumor effect when administered alone (MC38; reagent alone, no PD-L1 antibody, tumor volume)",survival rate (MC38; [4]),activation of AMPK and its associated proteins ACC and SIRT1 [1],activation of mTOR and its associated proteins S6K and 4EBP1 [2],health problems in use as diet supplement [3]
"c1cc(-c2cnn3cc(-c4ccc(OCCN5CCCCC5)cc4)cnc23)ccn1 [AMPK inhibitor, 6-[4-[2-(1-Piperidinyl)ethoxy]phenyl]-3-(4-pyridinyl)pyrazolo[1,5-a]pyrimidine]",enhances the efficacy of anti-PD-L1 antibody therapy,Synergistic effect,enhances the efficacy of anti-PD-L1 antibody therapy,Synergistic effect,–,–,–,–,–,–
"O=[N+]([O-])c1ccc(O)c([N+](=O)[O-])c1 [DNP, 2,4-dinitrophenol]",augmented the efficacy of PD-L1 antibody therapy; also recorded: enhance the antitumor effect of PD-L1 antibody,–,–,–,stronger antitumor activity; also recorded: Antitumor effect is enhanced,failed to exhibit any antitumor effect,remarkably improved the survival rate,activated,also found to be activated,caused severe health problems
